Measurements reported in the NIST ThermoML archive (doi:10.1016/j.tca.2004.08.013).
Numbers after ± are expanded uncertainties.

Assay: xn = mol fraction of the nth substance listed
Settings: 101.3 kPa, Liquid

CCN(CC)CC [triethylamine] + Clc1ccccc1
303.15 K
Settings | mass density [kg/m3] | viscosity [mPa·s]
x1 = 0.0118 | 1089.87 ± 0.65 | 0.709 ± 0.01
x1 = 0.0193 | 1086.26 ± 0.64 | 0.702 ± 0.01
x1 = 0.0299 | 1081.32 ± 0.63 | 0.694 ± 0.01
x1 = 0.0415 | 1075.87 ± 0.62 | 0.685 ± 0.01
x1 = 0.0493 | 1072.21 ± 0.61 | 0.677 ± 0.01
x1 = 0.0595 | 1067.48 ± 0.6 | 0.672 ± 0.01
x1 = 0.071 | 1062.15 ± 0.59 | 0.664 ± 0.009
x1 = 0.0792 | 1058.37 ± 0.59 | 0.658 ± 0.009
x1 = 0.0893 | 1053.74 ± 0.58 | 0.652 ± 0.009
x1 = 0.0994 | 1049.13 ± 0.57 | 0.645 ± 0.009

CCN(CC)CC [triethylamine] + C1COCCO1
303.15 K
Settings | mass density [kg/m3] | viscosity [mPa·s]
x1 = 0.0138 | 1015.32 ± 0.55 | 1.059 ± 0.014
x1 = 0.0232 | 1010.65 ± 0.54 | 1.042 ± 0.014
x1 = 0.0349 | 1004.86 ± 0.53 | 1.018 ± 0.014
x1 = 0.0453 | 999.87 ± 0.52 | 0.998 ± 0.014
x1 = 0.0551 | 995.17 ± 0.52 | 0.98 ± 0.013
x1 = 0.0691 | 988.57 ± 0.52 | 0.955 ± 0.013
x1 = 0.0803 | 983.41 ± 0.52 | 0.932 ± 0.013
x1 = 0.0909 | 978.57 ± 0.52 | 0.914 ± 0.012
x1 = 0.1006 | 974.22 ± 0.52 | 0.899 ± 0.012
x1 = 0.1128 | 968.78 ± 0.52 | 0.877 ± 0.012

CCN(CC)CC [triethylamine] + CCC(C)=O
303.15 K
Settings | mass density [kg/m3] | viscosity [mPa·s]
x1 = 0.011 | 798.96 ± 0.69 | 0.362 ± 0.006
x1 = 0.0217 | 798.22 ± 0.69 | 0.36 ± 0.006
x1 = 0.0315 | 797.6 ± 0.69 | 0.357 ± 0.006
x1 = 0.0413 | 796.87 ± 0.69 | 0.355 ± 0.006
x1 = 0.0508 | 796.32 ± 0.69 | 0.353 ± 0.006
x1 = 0.0597 | 795.5 ± 0.69 | 0.351 ± 0.006
x1 = 0.0697 | 794.8 ± 0.69 | 0.347 ± 0.006
x1 = 0.0801 | 794.25 ± 0.69 | 0.344 ± 0.006
x1 = 0.0915 | 793.37 ± 0.69 | 0.341 ± 0.006
x1 = 0.1022 | 792.79 ± 0.69 | 0.338 ± 0.006

CCCCN [1-butanamine] + ClC(Cl)(Cl)Cl
Settings | mass density, 303.15 K [kg/m3] | mass density, 313.15 K [kg/m3] | viscosity, 303.15 K [mPa·s] | viscosity, 313.15 K [mPa·s]
x1 = 0.0099 | 1566.74 ± 1.5 | 1547.13 ± 1.5 | 0.855 ± 0.012 | 0.763 ± 0.011
x1 = 0.0183 | 1559.88 ± 1.5 | 1540.41 ± 1.5 | 0.858 ± 0.012 | 0.765 ± 0.011
x1 = 0.0287 | 1551.36 ± 1.5 | 1532.01 ± 1.4 | 0.861 ± 0.012 | 0.768 ± 0.011
x1 = 0.0386 | 1543.06 ± 1.5 | 1523.9 ± 1.4 | 0.862 ± 0.012 | 0.77 ± 0.011
x1 = 0.0477 | 1535.31 ± 1.5 | 1516.18 ± 1.4 | 0.862 ± 0.012 | 0.773 ± 0.011
x1 = 0.0581 | 1526.57 ± 1.4 | 1507.58 ± 1.4 | 0.864 ± 0.012 | 0.776 ± 0.011
x1 = 0.0675 | 1518.67 ± 1.4 | 1499.84 ± 1.4 | 0.866 ± 0.012 | 0.78 ± 0.011
x1 = 0.076 | 1511.52 ± 1.4 | 1492.72 ± 1.4 | 0.869 ± 0.012 | 0.784 ± 0.011
x1 = 0.0856 | 1503.49 ± 1.4 | 1484.69 ± 1.4 | 0.871 ± 0.012 | 0.786 ± 0.011

CCCN [propan-1-amine] + ClC(Cl)(Cl)Cl
Settings | mass density, 303.15 K [kg/m3] | mass density, 313.15 K [kg/m3] | viscosity, 303.15 K [mPa·s] | viscosity, 313.15 K [mPa·s]
x1 = 0.0071 | 1569.84 ± 1.5 | 1550.16 ± 1.5 | 0.859 ± 0.012 | 0.761 ± 0.011
x1 = 0.0184 | 1561.86 ± 1.5 | 1542.3 ± 1.5 | 0.866 ± 0.012 | 0.763 ± 0.011
x1 = 0.0285 | 1554.57 ± 1.5 | 1535.07 ± 1.5 | 0.873 ± 0.012 | 0.764 ± 0.011
x1 = 0.0386 | 1547.37 ± 1.5 | 1527.92 ± 1.4 | 0.876 ± 0.012 | 0.765 ± 0.011
x1 = 0.0479 | 1540.78 ± 1.5 | 1521.37 ± 1.4 | 0.88 ± 0.012 | 0.768 ± 0.011
x1 = 0.0574 | 1533.92 ± 1.4 | 1514.52 ± 1.4 | 0.885 ± 0.012 | 0.77 ± 0.011
x1 = 0.0661 | 1527.48 ± 1.4 | 1508.11 ± 1.4 | 0.885 ± 0.012 | 0.772 ± 0.011
x1 = 0.0748 | 1521.24 ± 1.4 | 1501.94 ± 1.4 | 0.888 ± 0.012 | 0.774 ± 0.011
x1 = 0.0841 | 1514.3 ± 1.4 | 1495.14 ± 1.4 | 0.892 ± 0.012 | 0.775 ± 0.011

CCCN(CCC)CCC [tripropylamine] + ClC(Cl)(Cl)Cl
Settings | mass density, 303.15 K [kg/m3] | mass density, 313.15 K [kg/m3] | viscosity, 303.15 K [mPa·s] | viscosity, 313.15 K [mPa·s]
x1 = 0.0103 | 1558.08 ± 1.5 | 1538.54 ± 1.5 | 0.848 ± 0.012 | 0.754 ± 0.011
x1 = 0.0203 | 1542.01 ± 1.5 | 1522.71 ± 1.4 | 0.84 ± 0.012 | 0.747 ± 0.01
x1 = 0.0304 | 1526.35 ± 1.4 | 1507.24 ± 1.4 | 0.829 ± 0.011 | 0.739 ± 0.01
x1 = 0.0398 | 1511.85 ± 1.4 | 1492.94 ± 1.4 | 0.819 ± 0.011 | 0.733 ± 0.01
x1 = 0.0497 | 1496.93 ± 1.4 | 1478.28 ± 1.4 | 0.811 ± 0.011 | 0.726 ± 0.01
x1 = 0.0606 | 1480.86 ± 1.4 | 1462.46 ± 1.3 | 0.802 ± 0.011 | 0.718 ± 0.01
x1 = 0.0695 | 1468.02 ± 1.3 | 1449.76 ± 1.3 | 0.795 ± 0.011 | 0.712 ± 0.01
x1 = 0.0786 | 1455.03 ± 1.3 | 1437.01 ± 1.3 | 0.788 ± 0.011 | 0.706 ± 0.01
x1 = 0.0893 | 1440.17 ± 1.3 | 1422.3 ± 1.2 | 0.78 ± 0.011 | 0.699 ± 0.01

CCN(CC)CC [triethylamine] + O=[N+]([O-])c1ccccc1
303.15 K
Settings | mass density [kg/m3] | viscosity [mPa·s]
x1 = 0.0113 | 1186.81 ± 0.81 | 1.59 ± 0.021
x1 = 0.0201 | 1181.7 ± 0.79 | 1.569 ± 0.021
x1 = 0.0288 | 1176.68 ± 0.78 | 1.547 ± 0.02
x1 = 0.0404 | 1169.97 ± 0.77 | 1.521 ± 0.02
x1 = 0.0506 | 1164.25 ± 0.76 | 1.499 ± 0.02
x1 = 0.0601 | 1158.7 ± 0.75 | 1.48 ± 0.02
x1 = 0.0688 | 1153.74 ± 0.74 | 1.466 ± 0.019
x1 = 0.0819 | 1146.33 ± 0.72 | 1.44 ± 0.019
x1 = 0.091 | 1141.21 ± 0.71 | 1.422 ± 0.019
x1 = 0.1005 | 1136.48 ± 0.7 | 1.407 ± 0.019

CCCNCCC [dipropylamine] + ClC(Cl)Cl
Settings | mass density, 303.15 K [kg/m3] | mass density, 313.15 K [kg/m3] | viscosity, 303.15 K [mPa·s] | viscosity, 313.15 K [mPa·s]
x1 = 0.0105 | 1457.85 ± 1.3 | 1435.95 ± 1.3 | 0.525 ± 0.008 | 0.473 ± 0.007
x1 = 0.0217 | 1444.32 ± 1.3 | 1422.68 ± 1.2 | 0.531 ± 0.008 | 0.476 ± 0.007
x1 = 0.0311 | 1433.19 ± 1.3 | 1411.78 ± 1.2 | 0.535 ± 0.008 | 0.48 ± 0.007
x1 = 0.0411 | 1421.35 ± 1.2 | 1400.29 ± 1.2 | 0.539 ± 0.008 | 0.483 ± 0.007
x1 = 0.051 | 1409.85 ± 1.2 | 1389.04 ± 1.2 | 0.544 ± 0.008 | 0.486 ± 0.007
x1 = 0.0608 | 1398.52 ± 1.2 | 1378.03 ± 1.1 | 0.548 ± 0.008 | 0.488 ± 0.007
x1 = 0.0708 | 1387.22 ± 1.2 | 1366.94 ± 1.1 | 0.552 ± 0.008 | 0.492 ± 0.007
x1 = 0.0808 | 1376 ± 1.1 | 1356.01 ± 1.1 | 0.558 ± 0.008 | 0.494 ± 0.007
x1 = 0.0914 | 1364.32 ± 1.1 | 1344.6 ± 1.1 | 0.561 ± 0.008 | 0.497 ± 0.007
